IC50 data for 22 compounds are collected here from US11407738B2 (Achillion Pharmaceuticals, Inc., priority 2015, dated 2022).

Human Factor D, sequence (P00746 26-253): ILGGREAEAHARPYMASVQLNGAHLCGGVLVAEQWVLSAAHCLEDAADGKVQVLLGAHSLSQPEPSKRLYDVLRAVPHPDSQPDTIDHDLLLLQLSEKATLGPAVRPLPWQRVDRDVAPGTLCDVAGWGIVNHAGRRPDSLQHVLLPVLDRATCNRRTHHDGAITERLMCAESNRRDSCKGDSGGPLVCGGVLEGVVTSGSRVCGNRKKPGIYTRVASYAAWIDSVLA

In the first assay the target is Human Factor D (Homo sapiens (Human), UniProt P00746). As to the kind of experiment: Human Factor D assay. The class given is biochemical. Conditions: Table 3; Factor D inhibition, substrate Z-L-Lys-SBzl. The method, boiled down:
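Serum-purified human factor D (80 nM final) preincubated 5 min at room temperature with test compound in 50 mM Tris, 1M NaCl, pH 7.5. Z-L-Lys-SBzl substrate and DTNB then added, each at 100 μM final. IC50 from nonlinear regression of reaction rate against compound concentration.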
`Cc1ncc(-c2ccc3c(c2)c(C(N)=S)nn3CC(=O)N2C[C@H](F)C[C@H]2C(=O)Nc2cccc(Br)n2)cn1` [Compound 527, (2S,4R)—N-(6-Bromopyridin-2-yl)-1-(2-(3-carbamothioyl-5-(2-methylpyrimidin-5-yl)-1H-indazol-1-yl)acetyl)-4-fluoropyrrolidine-2-carboxamide] showed an IC50 of less than 1 µM. In turn, `CC(=O)c1nn(CC(=O)N2C[C@H](F)C[C@H]2C(=O)Nc2cccc(-c3ccc4c(c3)OC(F)(F)O4)c2F)c2ccc(-c3cnc(C)nc3)cc12` [Compound 528, (2S,4R)-1-(2-(3-Acetyl-5-(2-methylpyrimidin-5-yl)-1H-indazol-1-yl)acetyl)-N-(3-(2,2-difluorobenzo[d][1,3]dioxol-5-yl)-2-fluorophenyl)-4-fluoropyrrolidine-2-carboxamide] came in with an IC50 of less than 1 µM. In turn, `CC(=O)c1cn(CC(=O)N[C@H](C(=O)Nc2cccc(Br)n2)[C@@H](C)O)c2ccc(-c3cnc(C)nc3)cc12` [Compound 505, (2S,3R)-2-(2-(3-Acetyl-5-(2-methylpyrimidin-5-yl)-1H-indol-1-yl)acetamido)-N-(6-bromopyridin-2-yl)-3-hydroxybutanamide] registered an IC50 of less than 1 µM.

In the case of `CC(=O)c1cn(CC(=O)N[C@H](C(=O)Nc2cccc(-c3ccccc3Cl)c2F)[C@@H](C)O)c2ccc(-c3cnc(C)nc3)cc12` [Compound 500], the IC50 is less than 1 µM. `COC(=O)[C@@H]1C[C@@H](F)CN1C(=O)Cn1nc(C(C)=O)c2cc(-c3cnc(C)nc3)ccc21` [Compound 513, (2S,4R)-methyl 1-(2-(3-acetyl-5-(2-methylpyrimidin-5-yl)-1H-indazol-1-yl)acetyl)-4-fluoropyrrolidine-2-carboxylate] displayed an IC50 of more than 10 µM.

Still in this assay, the particulars now being: Table 4; Factor D inhibition, substrate Z-L-Lys-SBzl.
As to `CC[C@H](NC(=O)Cn1nc(C(C)=O)c2cc(-c3cnc(C)nc3)ccc21)C(=O)Nc1cccc(Br)n1` [Compound 600], the IC50 is less than 1 µM. Take `Cc1cccc(NC(=O)[C@@H]2CCC(F)CCN2C(=O)Cn2cc(C(N)=O)c3cc(-c4cccnc4)ccc32)n1` (stereo partly drawn) [Compound 588, 1-(2-((2S)-5-Fluoro-2-((6-methylpyridin-2-yl)carbamoyl)azepan-1-yl)-2-oxoethyl)-5-(pyridin-3-yl)-1H-indole-3-carboxamide]: the IC50 is more than 10 µM.

The compound `Cc1cccc(NC(=O)[C@@H]2CCC(F)CCN2C(=O)Cn2cc(C(N)=O)c3cc(-c4cnn5c4CCC5)ccc32)n1` (stereo partly drawn) [Compound 617, 5-(5,6-Dihydro-4H-pyrrolo[1,2-b]pyrazol-3-yl)-1-(2-((2S)-5-fluoro-2-((6-methylpyridin-2-yl)carbamoyl)azepan-1-yl)-2-oxoethyl)-1H-indole-3-carboxamide] gave an IC50 of more than 10 µM. `CC(=O)c1nn(CC(=O)N2CC=CC[C@H]2C(=O)Nc2cccc(Br)n2)c2ccc(-c3cnc(C)nc3)cc12` [Compound 573, (S)-1-(2-(3-Acetyl-5-(2-methylpyrimidin-5-yl)-1H-indazol-1-yl)acetyl)-N-(6-bromopyridin-2-yl)-1,2,3,6-tetrahydropyridine-2-carboxamide] gave an IC50 of less than 1 µM.

`Cc1cc2ncc(-c3nc4c(s3)c(C(N)=O)nn4CC(=O)N3C[C@H](F)C[C@H]3C(=S)NC3CCC(c4cc5sccc5s4)C3)cn2n1` (stereo partly drawn) [Compound 640, 1-(2-((2S,4R)-4-fluoro-2-((3-(thieno[3,2-b]thiophen-2-yl)cyclopentyl)carba-mothioyl)pyrrolidin-1-yl)-2-oxoethyl)-5-(2-methylpyrazolo[1,5-a]pyrimidin-6-yl)-1H-pyrazolo[3,4-d]thiazole-3-carboxamide] showed an IC50 of more than 10 µM.

For `CC(=O)c1nn(CC(=O)N2C[C@@](F)(CN=[N+]=[N-])C[C@H]2C(=O)Nc2cccc(Br)n2)c2ccc(-c3cnc(C)nc3)cc12` [Compound 547, (2S,4R)-1-(2-(3-Acetyl-5-(2-methylpyrimidin-5-yl)-1H-indazol-1-yl)acetyl)-4-(azidomethyl)-N-(6-bromopyridin-2-yl)-4-fluoropyrrolidine-2-carboxamide], the IC50 was less than 1 µM.

For the compound `CC(=O)c1nn(CC(=O)N2CC=CC[C@H]2C(=O)Nc2cccc(C)n2)c2ccc(-c3cnc(C)nc3)cc12` [Compound 569, (S)-1-(2-(3-acetyl-5-(2-methylpyrimidin-5-yl)-1H-indazol-1-yl)acetyl)-N-(6-methylpyridin-2-yl)-1,2,3,6-tetrahydropyridine-2-carboxamide], the IC50 was more than 10 µM.

The compound `Cc1cccc(NC(=O)[C@@H]2CC=CCN2C(=O)Cn2cc(C(N)=O)c3cc(-c4cnc(C)nc4)ccc32)n1` [Compound 566, (S)-1-(2-(2-((6-Methylpyridin-2-yl)carbamoyl)-3,6-dihydropyridin-(2H)-yl)-2-oxoethyl)-5-(2-methylpyrimidin-5-yl)-1H-indole-3-carboxamide] registered an IC50 of more than 10 µM. Regarding `CC(=O)c1nn(CC(=O)N2C[C@H]3C[C@H]3[C@H]2C(=O)Nc2ccn(CC(F)(F)F)n2)c2ccc(-c3cnc(C)nc3)cc12` [Compound 606, (1R,2S,5S)-3-(2-(3-acetyl-5-(2-methylpyrimidin-5-yl)-1H-indazol-1-yl)acetyl)-N-(1-(2,2,2-trifluoroethyl)-1H-pyrazol-3-yl)-3-azabicyclo[3.1.0]hex-ane-2-carboxamide], the IC50 is less than 1 µM. For the compound `Cc1cccc(NC(=O)[C@@H]2CCC(F)CCN2C(=O)Cn2cc(C(N)=O)c3cc(-c4ccc5cccnc5c4)ccc32)n1` (stereo partly drawn) [Compound 602, 1-(2-((2S)-5-Fluoro-2-((6-methylpyridin-2-yl)carbamoyl)azepan-1-yl)-2-oxoethyl)-5-(quinolin-7-yl)-1H-indole-3-carboxamide], the IC50 was more than 10 µM. As for `C=CCCCCCCCCCNc1ncc(-c2ccc3c(c2)c(C(C)=O)nn3CC(=O)O)cn1` [Compound 535, 2-(3-acetyl-5-(2-(undec-10-en-1-ylamino)pyrimidin-5-yl)-1H-indazol-1-yl)acetic acid], the IC50 was more than 10 µM.

The compound `CC(=O)c1nn(CC(=O)N2C[C@H](F)C[C@H]2C(=O)Nc2cccc(-c3ccc4scnc4c3)c2F)c2ccc(-c3cnc(C)nc3)cc12` [Compound 638, (2S,4R)-1-(2-(3-acetyl-5-(2-methylpyrimidin-5-yl)-1H-indazol-1-yl)acetyl)-N-(3-(benzo[d]thiazol-5-yl)-2-fluorophenyl)-4-fluoropyrrolidine-2-carboxamide] yielded an IC50 of less than 1 µM. `CC(=O)c1nn(CC(=O)N2C[C@H](F)C[C@H]2CC(=O)Nc2cccc(Br)n2)c2ccc(-c3cnc(C)nc3)cc12` [Compound 580, 2-((2R,4R)-1-(2-(3-Acetyl-5-(2-methylpyrimidin-5-yl)-1H-indazol-1-yl)acetyl)-4-fluoropyrrolidin-2-yl)-N-(6-bromopyridin-2-yl)acetamide] returned an IC50 of more than 10 µM.

`Cc1cccc(C[C@@H](O)[C@H]2C[C@@H](F)CN2C(=O)Cn2cc(C(N)=O)c3cc(-c4cnc5cc(C)nn5c4)ccc32)n1` [Compound 611, 1-(2-((2R,4R)-4-Fluoro-2-((R)-1-hydroxy-2-(6-methylpyridin-2-yl)ethyl)pyrrolidin-1-yl)-2-oxoethyl)-5-(2-methylpyrazolo [1,5-a]pyrimidin-6-yl)-1H-indole-3-carboxamide]: the IC50 is more than 10 µM.

Turning to `Cc1cccc(NC(=O)[C@@H]2CCC(F)CCN2C(=O)Cn2cc(C(N)=O)c3cc(-c4cnc5cc(C)nn5c4)ccc32)n1` (stereo partly drawn) [Compound 614, 1-(2-((2S)-5-Fluoro-2-((6-methylpyridin-2-yl)carbamoyl)azepan-1-yl)-2-oxoethyl)-5-(2-methylpyrazolo[1,5-a]pyrimidin-6-yl)-1H-indole-3-carboxamide], the IC50 is more than 10 µM. The compound `CC(=O)c1nn(CC(=O)N2C[C@H](F)C[C@H]2C(=O)NC2CCN(C(=O)c3cc(Cl)c[nH]3)CC2)c2ccc(-c3cnc(C)nc3)cc12` [Compound 532, (2S,4R)-1-(2-(3-acetyl-5-(2-methylpyrimidin-5-yl)-1H-indazol-1-yl)acetyl)-N-(1-(4-chloro-1H-pyrrole-2-carbonyl)piperidin-4-yl)-4-fluoropyrrolidine-2-carboxamide] yielded an IC50 of less than 1 µM. For the compound `CC(=O)c1nn(CC(=O)N2C[C@H](F)C[C@H]2CS(=O)(=O)c2cccc(Br)n2)c2ccc(-c3cnc(C)nc3)cc12` [Compound 603, 2-(3-Acetyl-5-(2-methylpyrimidin-5-yl)-1H-indazol-1-yl)-1-((2S,4R)-2-(((6-bromopyridin-2-yl)sulfonyl)methyl)-4-fluoropyrrolidin-1-yl)ethan-1-one], the IC50 is more than 10 µM.

As a reminder, the IC50 is the concentration needed to halve the response being measured. A higher IC50 goes with lower potency.
